Reference: patent US9497970B2, “Pesticide compounds” (priority 2013, dated 2016)

Assays:
Format in all cases: in vivo
[1] = test system: Diamond Back Moth (Plutella xylostella); assay: B.1 Diamond Back Moth (Plutella xylostella), cabbage leaf dip; settings: foliar, 500 ppm, 3rd instar larvae on dipped cabbage leaves, 72 hours after treatment, in comparison with untreated controls, read-out: mortality
Experimental: B.1 Diamond Back Moth (Plutella xylostella)
The active compound was dissolved at the desired concentration in a mixture of 1:1 (vol:vol) distilled water:aceteone. Surfactant (Kinetic HV) was added at a rate of 0.01% (vol/vol). The test solution was prepared at the day of use.
Leaves of cabbage were dipped in test solution and air-dried. Treated leaves were placed in petri dishes lined with moist filter paper and inoculated with ten 3rd instar larvae. Mortality was recorded 72 hours after treatment. Feeding damages were also recorded using a scale of 0-100%.

[2] = test system: Tobacco Budworm (Heliothis virescens); assay: B.7 Tobacco Budworm (Heliothis virescens) I, microtiter plate insect diet; settings: 120 h, 800 ppm, sprayed onto insect diet, 5 days, in comparison with untreated controls, read-out: mortality (egg and larval)
Experimental: B.7 Tobacco Budworm (Heliothis virescens) I
For evaluating control of tobacco budworm (Heliothis virescens) the test unit consisted of 96-well-microtiter plates containing an insect diet and 15-25 H. virescens eggs. The compounds were formulated using a solution containing 75% v/v water and 25% v/v DMSO. Different concentrations of formulated compounds were sprayed onto the insect diet at 10 μl, using a custom built micro atomizer, at two replications.
(§1) After application, microtiter plates were incubated at about 28±1° C. and about 80±5% relative humidity for 5 days. Egg and larval mortality was then visually assessed.

[3] = test system: Mediterranean Fruitfly (Ceratitis capitata); assay: B.6 Mediterranean Fruitfly (Ceratitis capitata), microtiter plate insect diet; settings: 120 h, 800 ppm, sprayed onto insect diet, 5 days, in comparison with untreated controls, read-out: mortality (egg and larval)
Experimental: B.6 Mediterranean Fruitfly (Ceratitis capitata)
For evaluating control of Mediterranean fruitfly (Ceratitis capitata) the test unit consisted of microtiter plates containing an insect diet and 50-80 C. capitata eggs.
(§2) The compounds were formulated using a solution containing 75% v/v water and 25% v/v DMSO. Different concentrations of formulated compounds were sprayed onto the insect diet at 5 μl, using a custom built micro atomizer, at two replications.
as §1

[4] = test system: Boll Weevil (Anthonomus grandis); assay: B.3 Boll Weevil (Anthonomus grandis), microtiter plate insect diet; settings: 120 h, 800 ppm, sprayed onto insect diet, 5 days, in comparison with untreated controls, read-out: mortality (egg and larval)
Experimental: B.3 Boll Weevil (Anthonomus grandis)
For evaluating control of boll weevil (Anthonomus grandis) the test unit consisted of 96-well-microtiter plates containing an insect diet and 5-10 A. grandis eggs.
as §2
After application, microtiter plates were incubated at about 25±1° C. and about 75±5% relative humidity for 5 days. Egg and larval mortality was then visually assessed.

[5] = test system: Orchid thrips (dichromothrips corbetti); assay: B.12 Orchid thrips (dichromothrips corbetti), floral-immersion technique; settings: adult thrips on dipped orchid petals, 72 hours after treatment, in comparison with untreated controls
Experimental: B.12 Orchid thrips (dichromothrips corbetti)
Dichromothrips corbetti adults used for bioassay were obtained from a colony maintained continuously under laboratory conditions. For testing purposes, the test compound is diluted in a 1:1 mixture of acetone:water (vol:vol), plus Kinetic HV at a rate of 0.01% v/v.
Thrips potency of each compound was evaluated by using a floral-immersion technique. All petals of individual, intact orchid flowers were dipped into treatment solution and allowed to dry in Petri dishes. Treated petals were placed into individual resealable plastic along with about 20 adult thrips. All test arenas were held under continuous light and a temperature of about 28° C. for duration of the assay. After 3 days, the numbers of live thrips were counted on each petal. The percent mortality was recorded 72 hours after treatment.

FC(F)(F)Oc1ccc(-n2cnc3c4ccc(/C=N/NC(=S)Nc5c(Cl)cc(Cl)cc5Cl)cc4ccc32)cc1 [C-3, 1-(2,4,6-trichlorophenyl)-3-[(E)-[3-[4-(trifluoromethoxy)phenyl]benzo[e]benzimidazol-7-yl]methyleneamino] thiourea]
≥ 75%: mortality at 500 ppm [1] | mortality at 800 ppm [2] | mortality at 800 ppm [3] | mortality at 800 ppm [4]

FC(F)(F)Oc1ccc(-c2onc3c2CCc2cc(/C=N/NC(=S)Nc4c(Cl)cc(Cl)cc4Cl)ccc2-3)cc1 [C-9, 1-(2,4,6-trichlorophenyl)-3-[(E)-[3-[4-(trifluoromethoxy)phenyl]-4,5-dihydrobenzo[g][2,1]benzoxazol-7-yl]methyleneamino]thiourea]
≥ 75%: mortality at 500 ppm [5] | mortality at 800 ppm [3]

Cc1ccc(Cl)cc1NC(=S)N/N=C/c1ccc2c(ccc3c2ncn3-c2ccc(OC(F)(F)F)cc2)c1 [C-21, 1-(5-chloro-2-methyl-phenyl)-3-[(E)-[3-[4-(trifluoromethoxy)phenyl]benzo[e]benzimidazol-7-yl]methyleneamino] thiourea]
≥ 75%: mortality at 500 ppm [1] | mortality at 800 ppm [2] | mortality at 500 ppm [5] | mortality at 800 ppm [3] | mortality at 800 ppm [4]

COc1ccccc1NC(=S)N/N=C/c1ccc2c(ccc3c2ncn3-c2ccc(OC(F)(F)F)cc2)c1 [C-26, 3-(2-methoxyphenyl)-1-[[3-[4-(trifluoromethoxy)phenyl]-9aH-benzo[e]benzimidazol-7-ylidene]methylimino] isothiourea]
≥ 75%: mortality at 500 ppm [1] | mortality at 800 ppm [2] | mortality at 800 ppm [3] | mortality at 800 ppm [4]

FC(F)(F)Oc1ccc(-n2cnc3c4ccc(/C=N/NC(=S)Nc5ccc(Cl)cc5Cl)cc4ccc32)cc1 [C-27, 1-(2,4-dichlorophenyl)-3-[(E)-[3-[4-(trifluoromethoxy)phenyl]benzo[e]benzimidazol-7-yl]methyleneamino]thiourea]
≥ 75%: mortality at 500 ppm [1] | mortality at 800 ppm [3] | mortality at 800 ppm [4]

FC(F)(F)Oc1ccc(-n2cnc3c4ccc(/C=N/NC(=S)Nc5cccc6ccccc56)cc4ccc32)cc1 [C-29, 1-(2H-naphthalen-1-ylidene)-3-[[3-[4-(trifluoromethoxy)phenyl]-9aH-benzo[e]benzimidazol-7-ylidene]methylimino] thiourea]
≥ 75%: mortality at 500 ppm [1] | mortality at 800 ppm [2] | mortality at 800 ppm [3] | mortality at 800 ppm [4]

FC(F)(F)Oc1ccc(-n2cnc3c4ccc(/C=N/NC(=S)Nc5ccccc5Cl)cc4ccc32)cc1 [C-30, 3-(2-chlorophenyl)-1-[[3-[4-(trifluoromethoxy)phenyl]-8H-benzo[e]benzimidazol-7-ylidene]methylimino] isothiourea]
≥ 75%: mortality at 500 ppm [1] | mortality at 500 ppm [5]

Cc1c(Cl)cccc1NC(=S)N/N=C/c1ccc2c(ccc3c2ncn3-c2ccc(OC(F)(F)F)cc2)c1 [C-39, 1-(3-chloro-2-methyl-phenyl)-3-[(E)-[3-[4-(trifluoromethoxy)phenyl]benzo[e]benzimidazol-7-yl]methyleneamino] thiourea]
≥ 75%: mortality at 800 ppm [2] | mortality at 800 ppm [3] | mortality at 800 ppm [4]

Fc1ccccc1NC(=S)N/N=C/c1ccc2c(ccc3c2ncn3-c2ccc(OC(F)(F)F)cc2)c1 [C-40, 3-(2-fluorophenyl)-1-[[3-[4-(trifluoromethoxy)phenyl]-5H-benzo[e]benzimidazol-7-ylidene]methylimino] isothiourea]
≥ 75%: mortality at 500 ppm [1] | mortality at 800 ppm [3] | mortality at 800 ppm [4]

Cc1cccc(C)c1NC(=S)N/N=C/c1ccc2c(ccc3c2cnn3-c2ccc(OC(F)(F)F)cc2)c1 [C-46, (E)-N-(2,6-dimethylphenyl)-2-((3-(4-(trifluoromethoxy)phenyl)-3H-benzo[e]indazol-7-yl)methylene)hydrazinecarbothioamide]
≥ 75%: mortality at 500 ppm [1] | mortality at 800 ppm [2] | mortality at 800 ppm [3] | mortality at 800 ppm [4]

CCc1ccccc1NC(=S)N/N=C/c1ccc2c(ccc3c2cnn3-c2ccc(OC(F)(F)F)cc2)c1 [C-50, 1-(2-ethylphenyl)-3-[[3-[4-(trifluoromethoxy)phenyl]-5H-benzo[e]indazol-7-ylidene]methylimino]thiourea]
≥ 75%: mortality at 500 ppm [1] | mortality at 800 ppm [2] | mortality at 800 ppm [3] | mortality at 800 ppm [4]

C/C(=N\NC(=S)Nc1c(Cl)cccc1Cl)c1ccc2c(ccc3c2ncn3-c2ccc(OC(F)(F)F)cc2)c1 [C-59]
≥ 75%: mortality at 800 ppm [2] | mortality at 800 ppm [3] | mortality at 800 ppm [4]

Cc1cccnc1NC(=S)N/N=C/c1ccc2c(ccc3c2ncn3-c2ccc(OC(F)(F)F)cc2)c1 [C-63, 1-(3-methyl-2-pyridyl)-3-[(E)-[3-[4-(trifluoromethoxy)phenyl]benzo[e]benzimidazol-7-yl]methyleneamino] thiourea]
≥ 75%: mortality at 800 ppm [2] | mortality at 800 ppm [3] | mortality at 800 ppm [4]

FC(F)(F)Oc1ccc(-n2cnc3c4ccc(/C=N/NC(=S)Nc5ccccc5I)cc4ccc32)cc1 [C-64, 1-(2-iodophenyl)-3-[[3-[4-(trifluoromethoxy)phenyl]-5H-benzo[e]benzimidazol-7-ylidene]methylimino] thiourea]
≥ 75%: mortality at 800 ppm [2] | mortality at 800 ppm [3] | mortality at 800 ppm [4]

FC(F)(F)Oc1ccc(-n2cnc3c4ccc(/C=N/NC(=S)Nc5ccccc5Br)cc4ccc32)cc1 [C-67, 1-(2-bromophenyl)-3-[[3-[4-(trifluoromethoxy)phenyl]-5H-benzo[e]benzimidazol-7-ylidene]methylimino] thiourea]
≥ 75%: mortality at 500 ppm [1] | mortality at 800 ppm [2] | mortality at 800 ppm [3] | mortality at 800 ppm [4]

CCc1cccc(C)c1NC(=S)N/N=C(\C)c1ccc2c(ccc3c2ncn3-c2ccc(OC(F)(F)F)cc2)c1 [C-82, 1-(2-ethyl-6-methyl-phenyl)-3-[(E)-1-[3-[4-(trifluoromethoxy)phenyl]benzo[e]benzimidazol-7-yl]ethylideneamino]thiourea]
≥ 75%: mortality at 500 ppm [1] | mortality at 500 ppm [5]

O=C(N/N=C/c1ccc2c(ccc3c2ncn3-c2ccc(OC(F)(F)F)cc2)c1)Nc1ccccc1 [C-89, 1-phenyl-3-[(E)-[3-[4-(trifluoromethoxy)phenyl]benzo[e]benzimidazol-7-yl]methyleneamino]urea]
≥ 75%: mortality at 500 ppm [1] | mortality at 800 ppm [2] | mortality at 800 ppm [4]

Cc1cccc(Cl)c1NC(=S)N/N=C/c1ccc2c(ccc3c(-c4ccc(OC(F)(F)F)cc4)n(C)nc32)c1 [C-91, 1-(2-chloro-6-methyl-phenyl)-3-[(E)-[2-methyl-3-[4-(trifluoromethoxy)phenyl]benzo[g]indazol-7-yl]methyleneamino] thiourea]
≥ 75%: mortality at 500 ppm [1] | mortality at 800 ppm [2] | mortality at 800 ppm [3] | mortality at 800 ppm [4]

CN1N=C2c3ccc(/C=N/NC(=S)Nc4c(Cl)cccc4Cl)cc3CCC2C1c1ccc(OC(F)(F)F)cc1 (centres unmarked) [C-95, 1-(2,6-dichlorophenyl)-3-[(E)-[2-methyl-3-[4-(trifluoromethoxy)phenyl]-3,3a,4,5-tetrahydrobenzo[g]indazol-7-yl]methyleneamino]thiourea]
≥ 75%: mortality at 500 ppm [1] | mortality at 800 ppm [2] | mortality at 800 ppm [4]

Cn1nc2c(ccc3cc(/C=N/NC(=S)Nc4c(Br)cccc4Br)ccc32)c1-c1ccc(OC(F)(F)F)cc1 [C-98, 1-(2,6-dibromophenyl)-3-[(E)-[2-methyl-3-[4-(trifluoromethoxy)phenyl]benzo[g]indazol-7-yl]methyleneamino] thiourea]
≥ 75%: mortality at 500 ppm [1] | mortality at 800 ppm [2] | mortality at 800 ppm [3] | mortality at 800 ppm [4]

Cn1nc2c(ccc3cc(/C=N/NC(=S)Nc4c(Cl)cccc4Cl)ccc32)c1-c1ccc(OC(F)(F)F)cc1 [C-99, 1-(2,6-dichlorophenyl)-3-[(E)-[2-methyl-3-[4-(trifluoromethoxy)phenyl]benzo[g]indazol-7-yl]methyleneamino]thiourea]
≥ 75%: mortality at 800 ppm [2] | mortality at 500 ppm [5] | mortality at 800 ppm [3] | mortality at 800 ppm [4]
